Data on eleven compounds can be found in PMC11335206, “Exploring oak processionary caterpillar induced lepidopterism (part 2): ex vivo bio-assays unmask the role of TRPV1” (Cellular and Molecular Life Sciences: CMLS, 2024).

Positions of bridges follow the written chain, without caps; N, C: chain ends. No end group written: not given here.

Data set [1] relates to TRPV1. On the set-up: method as in earlier work. The conditions noted are these: Latoia consocia; ref [35] Yao et al. (2019); cited from earlier work.
For a further data set, the target named is hTRPV1 (Homo sapiens, UniProt Q8NER1). As to the kind of experiment: TEVC electrophysiology on TRPV1 expressing oocytes. The class given is cell-based. From the text: We used Xenopus laevis oocytes as a heterologous expression system in electrophysiological experiments to express ligand-gated and voltage-gated ion channels. Molecular biology techniques (subcloning, transformation, linearization and transcription) were used to make RNA encoding: (1) transient receptor potential channel (hTRPV1 and hTRPA1), (2) histamine receptors (hH1R and hH4R), (3) bradykinin receptor (hB2R), (4) nicotinic acetylcholine receptor (adult muscle type hα1β1δε nAChR and neuronal hα7 nAChR), (5) acid-sensing ion channel (rASIC1a), (6) voltage-gated sodium channels (rNav1.1, rNav1.2, rNav1.3, rNav1.4, mNav1.6 and hNav1.8) and their auxiliary subunits rβ1 and hβ1 and (7) potassium channels (hKv1.1, hKv1.2, hKv1.3, hKv1.4, hKv1.5, hKv1.6, hKv3.1, hKv10.1, mGIRK1, mGIRK2 and mIRK1). Plasmids corresponding to each channel or receptor underwent linearization using specific restriction enzymes and subsequent transcription with the T3, T7, or SP6 mMESSAGE mMACHINE transcription kit (Ambion, USA). Depending on the channel type, defolliculated oocytes were injected with 10–50 nL of cRNA at a concentration of 1 ng/nL using a micro-injector (Nanoject II; Drummond Scientific Company, USA). Electrophysiological experiments were conducted following cRNA injection, with an incubation period of 1–5 days at 16 °C in ND96 buffer.
Chain of hTRPV1 (Q8NER1 whole entry): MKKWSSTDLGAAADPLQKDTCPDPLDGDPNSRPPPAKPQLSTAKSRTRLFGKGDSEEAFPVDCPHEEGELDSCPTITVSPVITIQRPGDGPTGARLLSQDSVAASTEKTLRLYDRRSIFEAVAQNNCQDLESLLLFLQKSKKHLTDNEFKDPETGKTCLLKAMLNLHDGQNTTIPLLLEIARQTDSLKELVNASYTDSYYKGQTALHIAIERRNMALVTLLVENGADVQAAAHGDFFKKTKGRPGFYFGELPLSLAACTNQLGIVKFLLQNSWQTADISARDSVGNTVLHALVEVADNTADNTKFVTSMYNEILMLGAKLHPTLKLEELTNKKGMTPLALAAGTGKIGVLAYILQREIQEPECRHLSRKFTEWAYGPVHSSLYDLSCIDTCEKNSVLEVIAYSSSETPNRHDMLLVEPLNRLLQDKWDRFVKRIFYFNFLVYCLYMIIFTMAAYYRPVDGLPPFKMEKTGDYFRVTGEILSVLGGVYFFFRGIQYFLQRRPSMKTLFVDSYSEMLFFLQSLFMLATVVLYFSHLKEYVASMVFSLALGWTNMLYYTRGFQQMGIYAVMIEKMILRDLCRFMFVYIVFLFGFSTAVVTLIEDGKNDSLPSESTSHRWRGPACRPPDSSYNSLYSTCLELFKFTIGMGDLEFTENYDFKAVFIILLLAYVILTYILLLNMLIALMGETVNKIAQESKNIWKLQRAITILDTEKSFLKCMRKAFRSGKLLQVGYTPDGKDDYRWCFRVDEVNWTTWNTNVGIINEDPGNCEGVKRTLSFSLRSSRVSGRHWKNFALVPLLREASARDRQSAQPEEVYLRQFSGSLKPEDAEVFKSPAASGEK

The next data set deals with hB2R. Briefly: TEVC on B2R expressing oocytes. The class given is cell-based, human. To be noted: 1 µM bradykinin; ramp −120 to +70 mV from −20 mV.
Data set [2] relates to individuals with atopic dermatitis. The conditions noted are these: topical, phase III, ref [36]; cited from earlier work. The source says: The results are consistent with the discoveries presented by Yao et al. (2019) regarding Latoia consocia, a caterpillar indigenous to South-West China. […] Despite substantial investments in the quest for TRPV1 antagonists, yet no antagonist is available on the market. Presently, a ...

The conditions of data set [3]: ref [28], cited from earlier work.
Data set [4] concerns TRPV1. The conditions noted are these: HEK293 cells, ref [44] Ahern et al. (2005), cited from earlier work. From the text:
(§1) Putrescine is a small aliphatic polyamine synthesized by ornithine decarboxylase (ODC) and found in the venom of other animals. Under physiological conditions, putrescine undergoes complete protonation. This property enables putrescine to interact with negatively charged macromolecules, such as DNA, RNA, ATP, phospholipids, or proteins. As a result, it plays a significant role in v ...

Data set [5] concerns histamine-N-methyltransferase. The conditions noted are these: ref [47]; cited from earlier work.
From the text: as §1

For a further data set, the system named is rat paw. To be noted: 10 µmol/paw, subcutaneous injection, ref [46]; cited from earlier work.
From the text: as §1

Another data set relates to hH4R. Briefly: TEVC on H4R-GIRK1/GIRK2-RGS4 oocytes. The class given is cell-based, human.
Another data set deals with hH1R. The class given is cell-based, human.
For a further data set, the system named is hTRPA1. Briefly: TEVC electrophysiology on TRPA1 expressing oocytes. The class given is cell-based, human. The conditions noted are these: 1 µM A967079; 50 µM mustard oil; holding −90 mV; n ≥ 3.

Experimental for hB2R: (§2) We used Xenopus laevis oocytes as a heterologous expression system in electrophysiological experiments to express ligand-gated and voltage-gated ion channels. […] Plasmids corresponding to each channel or receptor underwent linearization using specific restriction enzymes and subsequent transcription with the T3, T7, or SP6 mMESSAGE mMACHINE transcription kit (Ambion, USA). Depending on the channel type, defolliculated oocytes were injected with 10–50 nL of cRNA at a concentration of 1 ng/nL using a micro-injector (Nanoject II; Drummond Scientific Company, USA). Electrophysiological experiments were conducted following cRNA injection, with an incubation period of 1–5 days at 16 °C in ND96 buffer.
(§3) A two-electrode voltage clamp (TEVC) system utilizing a GeneClamp 500 amplifier (Molecular Devices, Downingtown, PA, USA) was under the control of a pClamp data acquisition system (Axon Instruments, USA), and pClamp Clampex 10.4 software (Axon Instruments®, USA). This setup was employed to measure currents across the cell membrane. The whole-cell currents from the oocytes were recorded at room temperature (18–22 °C). […]
(§4) The H1R and B2R couples with Gαq/11 proteins, initiating the release of Ca^2+ from the intracellular stores. This rise in intracellular Ca^2+ will activate the Ca^2+-activated Cl^− channels, serving as a sensitive readout.
Experimental for hH1R: as §2, §3, §4
Experimental for hH4R: as §2
A two-electrode voltage clamp (TEVC) system utilizing a GeneClamp 500 amplifier (Molecular Devices, Downingtown, PA, USA) was under the control of a pClamp data acquisition system (Axon Instruments, USA), and pClamp Clampex 10.4 software (Axon Instruments®, USA). This setup was employed to measure currents across the cell membrane. The whole-cell currents from the oocytes were recorded at room temperature (18–22 °C). Two micro-electrodes, comprising voltage and current electrodes, were crafted from borosilicate glass capillaries (1.14 mm outside diameter, 0.7 mm inside diameter), pulled using a microelectrode puller, PUL-1 (World Precision Instruments, USA). […]
Experimental for hTRPA1: as §2, §3
TRPV1 and TRPA1 currents were continuously monitored in a perfusing ND96 solution, following a protocol at −90 mV for 400 s. […]

On to `Oc1cc2c(cc1O)CN(C(=S)NCCc1ccc(Cl)cc1)CCC2` [capsazepine], for which the “reduction of caterpillar-induced pain” value in the data set on TRPV1 [1] is recorded as “a notable reduction”. In addition, the “block of venom extract-induced TRPV1 current increase” value at hTRPV1 (10 µM capsazepine, 0.4 µg/µL extract + 1 µM capsaicin, holding −90 mV, n ≥ 3) is “the current increase by whole venom setae extract disappeared”.

Turning to bradykinin, the “B2R conductance by agonist” value in the data set with hB2R is recorded as “evoked a change of conductance”.

Regarding `CCCc1nc(C(F)(F)F)ccc1/C=C/C(=O)N[C@H](C)c1cc(F)c(NS(C)(=O)=O)c(F)c1` [Asivatrep], in data set [2], the clinical efficacy entry is “encouraging results” and the safety profile entry is on record as “a favorable safety profile”.

Turning to `COc1ccc2c(c1)c(CC(=O)O)c(C)n2C(=O)c1ccc(Cl)cc1` [indomethacin], the “reduction of secapin-2 edema formation and pain sensation” value in data set [3] (nonspecific antagonist of cyclooxygenase) was “did not show any reducing effects on edema formation and pain sensation”.

`NCCCCN` [putrescine]: the “TRPV1 activity, putrescine alone” value with TRPV1 [4] (5 mM putrescine alone) is on record as “did not induce a detectable TRPV1 activity”. The “enhancement of capsaicin-evoked TRPV1 current” value in the data set with TRPV1 [4] (5 mM putrescine with 30 nM capsaicin) is recorded as “remarkably intensified the current evoked by 30 nM capsaicin”. In addition, the histamine-N-methyltransferase activity entry in data set [5] was “inhibiting histamine-N-methyltransferase activity”. Moreover, in the data set on rat paw, the “duration of sustained edema” value is listed as 6 h and the mechanical allodynia result is given as “induction of mechanical allodynia”.

As for `CC(c1cc2ccccc2s1)N(O)C(N)=O` (stereo not drawn) [Zileuton], the “suppression of pain and edema induced by secapin-2” value in [3] (5-lipoxygenase blocker, secapin-2 injection) was “suppress pain and edema responses”.

In the case of `CN1CCN(C(=O)c2cc3cc(Cl)ccc3[nH]2)CC1` [JNJ 7777120], the “block of histamine effect on H4R” value in the data set on hH4R is “The effect of histamine (blue) was blocked”.

In the case of `NCCc1c[nH]cn1` [histamine], the “H1R current by agonist” value in the data set on hH1R is recorded as “a current increase”.

With “DHETDLDDSNVPRIGRHIIDAPKRGCPEGYRKDHQGKCREVL (disulfide 26-38) [TPTX1-Tp1]”, on hTRPV1 (1 µM TPTX1-Tp1 (Fig. 4B), no capsaicin, ramp −120 to +70 mV from −20 mV, ND96), the “effect on TRPV1, peptide alone” value was “does not have an effect on TRPV1 injected oocytes”. Further, the “TRPV1 current with capsaicin” value on hTRPV1 (TPTX1-Tp1 combined with 0.1 µM capsaicin, ramp −120 to +70 mV from −20 mV, ND96) is on record as “induces an increase in the current”.

Turning to `COc1cc(CNC(=O)CCCC/C=C/C(C)C)ccc1O` [capsaicin], at hTRPV1, the “TRPV1 current by agonist” value was “a current increase”.

`CCC(=N\O)/C(C)=C/c1ccc(F)cc1` [A967079]: the “block of mustard oil effect on TRPA1” value with hTRPA1 was “is blocked”.
